Consider 1 compound from patent US20230285498A1, “TREATMENTS FOR CANCERS HAVING KRAS MUTATIONS” (City of Hope, priority 2020, published 2023).

Experiment [1] has as its system H23 spheroids. In words: 3D spheroid assay. Type of experiment: cell-based. On the procedure: (§1) The activation of apoptosis is marked with the increase in green fluorescence intensity.
(§2) To determine the sensitivities of the same cells in 3D, mKate expressing cells were used to generate spheroids. Spheroids were monitored in real time using the IncuCyte live cell imaging system (FIG. 1B).
(§3) Cell proliferation and apoptosis assay: Cell proliferation assays were performed using cell lines stably transfected with NucLight Red Lentivirus (Essen BioScience) to accurately visualize and count the nucleus of a single cell. Cells were seeded on a 96-well plate and allowed to adhere for 24 h. Test compounds were added at indicated concentrations. Caspase-3/7 Green Apoptosis Reagent (Essen BioScience) was also added as a green fluorescent indicator of caspase3/7-mediated apoptotic activity. To monitor cell proliferation and apoptosis over time, the plate was placed in the IncuCyte S3 Live Cell Imaging System (Essen BioScience) and images were acquired every 2 hours. Data analysis was generated by the IncuCyte software using a red fluorescence mask to accurately count each cell nucleus and a green fluorescence mask to measure apoptosis over time. 3D spheroid assay 3D spheroid experiments were performed using cell lines stably transfected with NucLight Red Lentivirus (Essen BioScience) to visualize red fluorescence as an indicator of cell viability. Cells were seeded on a 96-well ultra-low attachment plate and allowed to form spheroids overnight. Drug treatment was added as indicated along with Cytotox Green Reagent (Essen BioScience), used as a green fluorescence indicator of cell death due to loss of cell membrane integrity. To monitor cell proliferation and apoptosis over time, the plate was placed in the IncuCyte S3 Live Cell Imaging System (Essen BioScience) and images were acquired every 2 hours. Data analysis was generated by the IncuCyte software using a red fluorescence mask to accurately measure intensity and area of red fluorescence, indicating spheroid viability and a green fluorescence mask, indicating cell death. Cell cycle analysis.

The test system of experiment [2] is H358 spheroids. In words: 3D spheroid assay. Format: cell-based. On the procedure:
as §1, §2, §3

In experiment [3] the test system is SW1573 spheroids. In words: 3D spheroid assay. Format: cell-based. On the procedure: as §1, §2, §3
For experiment [4], the system named is SW1573. In words: Drug combination synergy assay (inhibition matrix). Format: cell-based. The following applies: Homo sapiens, read-out: inhibition of cell growth. On the procedure: The synergy finder codes were used to determine the synergy between drugs for 48 possible combinations. The codes were run using the R-platform and synergy was calculated and represented as the synergy landscape.
Drug Combination Synergy Assay: For combination index (CI) calculation, SW1573 and H23 incured cell lines were seeded in 96-well plate with 5000 cells per well. Three biological replicates (three 96-well plates for each drug combination) were used. […] The drugs were used in linear dilution series with dilution factor of 2. […] Further, R package called SynergyFinder (He et al., 2018) was used to find the nature of drug-drug interaction (i.e. if they work in synergy or antagonistically or non-interactively). For this purpose, the drug response matrix is supplied to the mentioned package, which then uses several models namely Highest Single Agent (Berenbaum, 1989), Loewe additivity (Loewe, 1953), Bliss independence (Bliss, 1939) and Zero Interaction Potency (Yadav et al., 2015) to quantify the degree of drug synergy. The dose response matrix was used to calculate individual CI values for IC30, IC50 and IC70 drug treatments. The output values were used to plot isobolograms using the following formula. CI=IC50 (A) pair IC50 (A)+IC50 (B) pair IC50 (B)

For experiment [5], the system named is SW1573 NSCLC cells. In words: Mouse SW1573 xenograft. Type of experiment: in vivo, Athymic nude nu/nu mice. Conditions: sotorasib 10 mg/kg, adagrasib 10 mg/kg, carfilzomib 2 mg/kg; oral gavage twice a week; day 56. As to the method: Mouse xenograft studies. Athymic nude nu/nu mice were obtained from Charles River, Wilmington, Mass., and were acclimated for a week before beginning the experiment. All animal experiments were carried out in accordance with a protocol approved by the Institutional Animal Care and Use Committee (IACUC #16004). […] All 40 animals were injected with 1×10^6 SW1573 cells suspensions in 100 μl of PBS, subcutaneously into one flank of each mouse. At the same time, animals were randomized into treatment groups. Treatment was started 12 days after the SW1573 NSCLC cells implantation to see palpable tumor growth. Treatments were given to mice via oral gavage twice a week for 8 weeks. Animals were examined daily for signs of tumor growth. Tumors were measured in two dimensions using calipers and body weights were recorded. Photographs of animals were taken at day 1, day 7, day 14, day 21, day 28, day 35, day 42, day 49, and day 56 after treatment. Photographs of tumors were also taken at day 56 after treatment. At the end of the study, the mice were euthanized by CO2 asphyxiation followed by cervical dislocation. The tumor weights were compared between groups using an unpaired Student's t-test. A portion of the tumor was fixed in 10% buffered formaldehyde solution and paraffin-embedded for immuno-staining or was snap-frozen in liquid nitrogen for further molecular analysis such as western blotting.

Experiment [6] has as its system SW1573 cells. In words: Cell cycle analysis (FACS). Type of experiment: cell-based. Conditions: 20 μM, 72 hours. An excerpt:
Using commercially available lentiviral particles (Essen Bioscience Inc.), a SW1573 stable cell line was developed to determine the dynamics of the cell cycle in response to the KRAS inhibitors. In the G1 phase, these cells express the red fluorescent protein and in G2, they express the green fluorescent protein, and cells transitioning from G1 to […], express both the proteins giving rise to yellow florescence.
Cell cycle analysis. […] The stable cell line was generated using the puromycin selection media. Yellow cells are indicative of cell cycle transition from G1 to S while non-fluorescent cells are moving from M to G1.

The subject of experiment [7] is ITGB4-overexpressing H23 cells. In words: Cell proliferation, ITGB4-overexpressing cells. Type of experiment: cell-based. The following applies: Homo sapiens, NCI-H23.
Experiment [8] has as its system H23 sotorasib (20 μM)-resistant cells. In words: Cell proliferation, isogenic sotorasib resistant line. Type of experiment: cell-based. The following applies: ITGB4/β-catenin double knockdown together with sotorasib; 96 hours. The text has this:
Next, it was sought to determine cell proliferation changes with the combination treatment.

As a reminder, the IC50 is the midpoint of a concentration-inhibition curve. In the case of `C=CC(=O)N1CCN(c2nc(=O)n(-c3c(C)ccnc3C(C)C)c3nc(-c4c(O)cccc4F)c(F)cc23)[C@@H](C)C1` [sotorasib], the “drop in spheroid red intensity” value in experiment [1] (H23, 0.3 μM) is “about 40%”; in experiment [2] (H358, 0.3 μM), “about 80%”. Moreover, the inhibition at 0.3 µM amounted to 70% in experiment [1] (H23, 0.3 μM, read-out: inhibition of spheroid area); 90% in experiment [2] (Homo sapiens, NCI-H358, H358, 0.3 μM, read-out: inhibition of spheroid area); 30% in experiment [3] (Homo sapiens, SW1573, 0.3 μM, read-out: inhibition of spheroid area). Moreover, the “spheroid red intensity dropped to” value was 80% in experiment [1] (H23, 10 μM) and 70% in experiment [3] (SW1573, 10 μM). Further, the IC50 in experiment [1] (H23 spheroid, read-out: IC50 in cell line derived spheroid) turned out to be 12.3 µM; in experiment [2] (Homo sapiens, NCI-H358, H358 spheroid, read-out: IC50 in cell line derived spheroid), 2.2 nM; in experiment [3] (Homo sapiens, SW1573 spheroid, read-out: IC50 in cell line derived spheroid) it was 12.6 µM. For the same compound, the inhibition at 10 µM in experiment [3] (Homo sapiens, SW1573, 10 μM, read-out: inhibition of spheroid area / reduction in spheroid growth) was about 40%; in experiment [7] it was 5%. Moreover, in experiment [4], the inhibition at 16 µM is about 10%. In experiment [5], the “reduction in tumor area” value is on record as “about 52%”. In experiment [6] (from 26%), this compound showed a G2 population of 11%. In experiment [6] (from about 39%), this compound came in with a G1 population of 62%. Moreover, the “sensitization of isogenic resistant line” value in experiment [8] stood at 70%.
